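Each compound was tested at five concentrations against cells in 96-well plates for 48 hours. TGI is the concentration that stops growth completely.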

Test systems include MDA-N; SNB-78 CNS; LXFL 529 NSCLC; KM20L2 colon; DMS 114 small cell lung; RXF-631 renal; DMS 273 small cell lung; XF 498 CNS.
What all share (assay): NCI-60 cell line screen, 48 h

For the compound `OCC1C(OCc2ccccc2)C(OCc2ccccc2)C(OCc2ccccc2)CN1Cc1ccccc1` (configuration not stated), the TGI in the assay with MDA-N was over 100 µM.
Regarding `CC(C)(C)C1=CC(=C(P(=O)(O)O)P(=O)(O)O)C=C(C(C)(C)C)C1=O`, the TGI in the assay with SNB-78 CNS, in the assay with LXFL 529 NSCLC, in the assay on KM20L2 colon, in the assay on DMS 114 small cell lung, in the assay on RXF-631 renal and in the assay on DMS 273 small cell lung was over 50 µM in each case.
With `Cc1c(-c2cnccn2)ssc1=S`, in the assay with MDA-N, the TGI is over 100 µM.
Consider `CC(C)N(C(=O)C12C3C4C5(C#N)C3C1(C#N)C5C42C#N)C(C)C` (configuration not stated), for which the TGI in the assay with XF 498 CNS, with SNB-78 CNS, in the assay on LXFL 529 NSCLC, in the assay on KM20L2 colon, in the assay on DMS 114 small cell lung and with DMS 273 small cell lung was over 100 µM each time.
`O=C(O)c1cc(-c2ccc3cc4c(cc3c2)OCO4)nc2ccccc12` showed a TGI in the assay with MDA-N of over 100 µM.
With `O=C(/C=C\c1ccccc1O)c1ccc(O)cc1O`, the TGI with SNB-78 CNS, in the assay on LXFL 529 NSCLC, with KM20L2 colon, in the assay with DMS 114 small cell lung, with RXF-631 renal and in the assay with DMS 273 small cell lung was over 100 µM in each case.
Take `Cc1nc([N+](=O)[O-])cn1-c1nc2ccccn2c1[N+](=O)[O-]`: in the assay on MDA-N, the TGI was over 100 µM.
On to `O=C1C=C(Nc2ccc(Cl)cc2Cl)c2ccccc2C1=O`, for which the TGI in the assay on SNB-78 CNS was over 100 µM; in the assay with LXFL 529 NSCLC, over 100 µM; with KM20L2 colon, over 100 µM; with DMS 114 small cell lung it was 64.1 µM; in the assay on RXF-631 renal, over 100 µM; with DMS 273 small cell lung it was 79.5 µM.
In the case of `Cc1c(C)c2ccc3oc4ccccc4c3c2oc1=O`, the TGI in the assay with SNB-78 CNS, with LXFL 529 NSCLC, in the assay on KM20L2 colon, in the assay with DMS 114 small cell lung and in the assay with RXF-631 renal was over 100 µM in each case.
On to `COC(=O)c1cc2c(=O)n(C)c3ccccc3n2c1C(=O)OC`, for which the TGI with XF 498 CNS was 51.3 µM; with SNB-78 CNS, over 100 µM; in the assay with LXFL 529 NSCLC, over 100 µM; with KM20L2 colon, over 100 µM; in the assay with DMS 114 small cell lung, over 100 µM; with RXF-631 renal, over 100 µM. Besides, the TGI with DMS 273 small cell lung is over 100 µM.
In the case of `O=C(O)CCNCC(=O)O`, the TGI in the assay on MDA-N was over 100 µM.
On to `CCOC(OC(C)=O)[C@@H]1C=C[C@H](C)N(c2ccc([N+](=O)[O-])cc2)O1` (some centres not stated), for which the TGI in the assay with XF 498 CNS was 32.6 µM; with SNB-78 CNS it was 60.4 µM; in the assay on LXFL 529 NSCLC, 10.8 µM; in the assay on KM20L2 colon, 34.3 µM; in the assay on DMS 114 small cell lung, 16.9 µM; in the assay with RXF-631 renal, 25.7 µM. The TGI in the assay on DMS 273 small cell lung was determined as 13.4 µM.
Turning to `CSc1ccc2c(cc1=O)[C@@H](NC(=O)c1cccc([N+](=O)[O-])c1)CCc1cc(O)c(O)c(O)c1-2`, the TGI with LXFL 529 NSCLC is over 100 µM; in the assay with KM20L2 colon it was 56.5 µM; with DMS 114 small cell lung it was 60 µM; in the assay on RXF-631 renal, over 100 µM; in the assay on DMS 273 small cell lung, over 100 µM.
As to `CCC[C@H]1O[C@@H]2CC(=O)O[C@@H]2C2=C1C(=O)C=CC2=O`, the TGI was determined as 45.7 µM with SNB-78 CNS, 29.6 µM in the assay on LXFL 529 NSCLC, 43.8 µM in the assay with KM20L2 colon and 19.5 µM in the assay on DMS 273 small cell lung.
Consider `CN(CCS(=O)(=O)N1C(=O)C2CCCN2C(=O)[C@@H]1Cc1ccccc1)C(=O)OCc1ccccc1` (some centres not stated), for which the TGI in the assay with SNB-78 CNS, in the assay with LXFL 529 NSCLC, with KM20L2 colon, in the assay on DMS 114 small cell lung and in the assay on RXF-631 renal was over 100 µM each time.
Take `N#C/C(=C\c1cc(O)cc(O)c1)C(N)=O`: the TGI in the assay on XF 498 CNS, with SNB-78 CNS, in the assay with LXFL 529 NSCLC, in the assay with KM20L2 colon, in the assay on DMS 114 small cell lung and with RXF-631 renal was over 100 µM in each case. Besides, the TGI with DMS 273 small cell lung is over 100 µM.
`C=CCC1(CN(C)C)CC/C(=C\c2ccc(OC)cc2)C1=O` (configuration not stated): the TGI is over 100 µM in the assay with SNB-78 CNS; over 100 µM in the assay with LXFL 529 NSCLC; over 100 µM in the assay with KM20L2 colon; over 100 µM in the assay with DMS 114 small cell lung; 49 µM in the assay on RXF-631 renal; over 100 µM in the assay with DMS 273 small cell lung.
As to `C=C[C@@H](C)[C@]1(C(=O)OC)CCCC12OCCO2`, the TGI in the assay on XF 498 CNS, with LXFL 529 NSCLC, in the assay with KM20L2 colon, with DMS 114 small cell lung and in the assay on DMS 273 small cell lung was over 100 µM throughout.
For the compound `Cc1ccc(C)c(N2C(=O)C(=O)C(c3nc4ccccc4s3)/C(=N/N)C2=O)c1` (configuration not stated), the TGI with XF 498 CNS, in the assay with SNB-78 CNS, with LXFL 529 NSCLC, in the assay with KM20L2 colon, in the assay with DMS 114 small cell lung and with DMS 273 small cell lung was over 100 µM throughout.
In the case of `CC1(C)OC2C(CCP(=O)(O)O)OC(c3nc(C(N)=O)cs3)C2O1` (configuration not stated), the TGI in the assay on LXFL 529 NSCLC, in the assay with KM20L2 colon, in the assay with DMS 114 small cell lung, with RXF-631 renal and in the assay on DMS 273 small cell lung was over 100 µM in each case.
`NNC(=O)C(=O)N/N=C(\CCCC(=O)Nc1ccc(Cl)cc1)CC(=O)c1ccc(F)cc1`: the TGI in the assay with XF 498 CNS, with SNB-78 CNS, with LXFL 529 NSCLC, in the assay on KM20L2 colon, in the assay with DMS 114 small cell lung and in the assay on RXF-631 renal was over 100 µM throughout.

(Values after PubChem BioAssay (NCI).)
